Assay results reported in patent publication US20050282745A1, “Non-mammalian GnRH analogs and uses thereof in regulation of fertility and pregnancy” (priority 2001, published 2005).
Where two headings read alike, the source gives them in different places.

Experiments:
[1] = test system: human placental GnRH receptor; assay: Placental GnRH receptor binding, 125I-Buserelin label
Procedure: The newly synthesized non-mammalian GnRH analogs and other commercially available mammalian GnRH analogs were used in placental receptors binding and enzyme stability study described here. […] GnRH receptors were purified from the membrane fractions from placentas. The purification procedure for the placental GnRH receptor was performed using a modification of the method described by Bramley et al., which reference is specifically incorporated herein by reference for the purpose. Addition of enzyme inhibitors for the endogenous C-ase-1 were used as well as agents for receptor stabilization. Initially, receptor-binding assays using ^125I-Buserelin as label were performed. The competitive binding of each of the analogs was studied over a dose range of 10^−11 to 10^−6 M. Incubation was at room temperature and receptor bound label was precipitated with polyethylene glycol. Specific and non-specific binding was determined. The data was subjected to Scatchard analysis. The non-mammalian GnRH analogs' ability to bind to the placental GnRH receptor was compared to that for synthetic mammalian GnRH (SEQ ID NO: 5), Buserelin (SEQ ID NO: 10) and other mammalian analogs. […] This way, the receptor affinity for that analog could be precisely determined. Receptors from three different term placentas were used to study each of these analogs. […] Bramley T A, McPhie C A, Menzies G S 1994 Human placental gonadotropin-releasing hormone (GnRH) binding sites: 111. […] Placenta 15:733-745.
In these and additional studies, placental GnRH receptors were purified from human term placentas after homogenization in 40 mM Tris (pH 7.4) and filtered through cheesecloth, followed by an initial centrifugation at 1,000×g for 10 minutes. The resulting supernatant was, again, centrifuged at 35,000×g for 30 minutes and the membrane pellet was collected and resuspended in Tris buffer with 0.3 M sucrose. The protein concentration was determined. Membranes were stored frozen at −20 C until use. Before use, placental membranes were diluted to 5,000 μg/mL with Tris buffer containing 0.5% BSA and 50 U/mL bacitracin. […] Following incubation at room temperature for 4 hours, the bound and free hormones were separated using polyethylene glycol precipitation, followed by centrifugation. The binding affinity for each GnRH isoform or analog was calculated using the double reciprocal plot of bound versus free ligand. Each study was done using three different human term placental tissues.
Receptor assays were performed by incubating human term placental GnRH receptors with varying concentrations of GnRH or its analogs in the presence of ^125I-Buserelin. The reaction was stopped and the bound hormone precipitated with polyethylene glycol.

[2] = test system: early human placental explants; assay: Placental explant perifusion, hCG release; assay type: cell-based
Excerpt: Placental tissues that are normally discarded were obtained from unidentified patients following first trimester pregnancy termination (early human placental explants). Tissue fragments, dissected of vessels and membranes, were placed in a perfusion system for study of 20 replicate chambers of the same tissue. This allows for simultaneous dose-response studies to be performed. To achieve this specific aim, explants from a given placenta were placed in 20 replicate chambers and perfused with basal medium for three hours at a rate of 6 ml/hr (dead volume of the system at 6 ml/hr is ten minutes). After three hours of equilibration, the analog was added to the basal perfusing medium. Quaduplicate chambers were made for chicken II GnRH analog (SEQ ID NO: 2) at 0, 10^−9, 10^−8, 10^−7, 10^−6 M and Buserelin (SEQ ID NO: 10) at 10^−7 M. The effluent medium of each chamber was collected after a three hour equilibration period. Two basal samples, at half hour intervals were collected, media with test substances was initiated and effluent medium collection continued for four and one half hours at thirty minute intervals. The hCG release was analyzed in each of these experiments. FIGS. 16 and 17 illustrate a typical response. […] Maximal response was observed within minutes after initiation of perfusion at 10^−8 M, with possible down regulation beginning after five hours at 10^−6 M as illustrated in FIG. 18.
In additional experiments, early gestation human placentas were perfused for six hours with medium supplemented with estradiol, progesterone, bovine serum albumin, and antibiotics (basal medium). Twenty replicate chambers were perifused with basal medium for two hours, then triplicate chambers were perifused with the medium containing either Buserelin (SEQ ID NO: 10), or 10^−9, 10^−8, 10^−7, 10^−6 M of a chicken II GnRH analog (SEQ ID NO: 2), leaving five control chambers. The eluted medium was collected at thirty minute intervals, starting one hour prior to the addition of GnRH analogs and throughout five hours of treatment. hCG released into the effluent media, as well as the production of GnRH, were measured using sensitive and specific radioimmunoassays. The release of hCG at each time point was normalized to its zero treatment release and the release throughout the treatment period and its average release was compared for various treatment regimens. These studies were repeated using tissues from three different first trimester placentas. The results of this experiment are illustrated in FIG. 20.

baboon granulosa cells = assay: Baboon granulosa cell culture, progesterone release; assay type: cell-based; settings: chicken II analog 10^−9 to 10^−6 M; Buserelin 10^−7
Excerpt: The biopotency of chicken II GnRH analogs (SEQ ID NO: 2) in the regulation of baboon ovarian function was studied. The effect of mammalian and chicken II GnRH analogs (SEQ ID NO: 2) on ovarian progesterone release was studied using granulosa cell cultures. The dose-related action of a stable analog of chicken II GnRH (SEQ ID NO: 2) on progesterone production was defined using baboon granulosa cell cultures. After a two hour basal study period, the medium was supplemented with either Buserilin (SEQ ID NO: 10) (10^−7) or a chicken II GnRH analog (SEQ ID NO: 2) (10^−9, 10^−8, 10^−7, 10^−6 M) leaving four control wells. […] This inhibition was sustained after 48 hours of treatment. […] In addition, the action of the analog on three different stromal and three different epithelial endometrial primary cell lines (after 3-5 passages) has been studied and PGE2 determined as indicated in FIG. 31.

placental GnRH receptor = assay: Mean
Excerpt: Table printed on a drawing sheet, Fig. 1
The patent's description of the figure: FIG. 1. Placental Kds for Chicken II and Mammalian GnRH Analogs
First copying reader's note: Each column is one GnRH analog; the rows are Kd values in individual placentas, followed by the mean and SEM.
Where the first naming reader finds the target: passage: the affinity for the placental GnRH receptor was enhanced 2 fold

[3] = test system: chorionic peptidase-1 (C-ase-1); assay: C-ase-1 enzyme activity assay, competition for degradation of GnRH
[4] = test system: human placental GnRH receptor; assay: Placental GnRH receptor binding, radiolabeled D-Arg(6)-chicken II GnRH-aza-Gly(10)-amide label; settings: versus Buserelin label
Procedure: The newly synthesized non-mammalian GnRH analogs and other commercially available mammalian GnRH analogs were used in placental receptors binding and enzyme stability study described here. On the basis of these studies, the most receptor potent and enzyme-stable analogs were chosen for further biopotency studies. GnRH receptors were purified from the membrane fractions from placentas. The purification procedure for the placental GnRH receptor was performed using a modification of the method described by Bramley et al., which reference is specifically incorporated herein by reference for the purpose. Addition of enzyme inhibitors for the endogenous C-ase-1 were used as well as agents for receptor stabilization. Initially, receptor-binding assays using ^125I-Buserelin as label were performed. The competitive binding of each of the analogs was studied over a dose range of 10^−11 to 10^−6 M. Incubation was at room temperature and receptor bound label was precipitated with polyethylene glycol. Specific and non-specific binding was determined. The data was subjected to Scatchard analysis. The non-mammalian GnRH analogs' ability to bind to the placental GnRH receptor was compared to that for synthetic mammalian GnRH (SEQ ID NO: 5), Buserelin (SEQ ID NO: 10) and other mammalian analogs. […] This way, the receptor affinity for that analog could be precisely determined. Receptors from three different term placentas were used to study each of these analogs. […] Bramley T A, McPhie C A, Menzies G S 1994 Human placental gonadotropin-releasing hormone (GnRH) binding sites: 111. Changes in GnRH binding levels with stage of gestation. Placenta 15:733-745.
In these and additional studies, placental GnRH receptors were purified from human term placentas after homogenization in 40 mM Tris (pH 7.4) and filtered through cheesecloth, followed by an initial centrifugation at 1,000×g for 10 minutes. The resulting supernatant was, again, centrifuged at 35,000×g for 30 minutes and the membrane pellet was collected and resuspended in Tris buffer with 0.3 M sucrose. The protein concentration was determined. Membranes were stored frozen at −20 C until use. Before use, placental membranes were diluted to 5,000 μg/mL with Tris buffer containing 0.5% BSA and 50 U/mL bacitracin. Placental membranes (100 μL) were used with varying concentrations of mammalian GnRH (SEQ ID NO: 5), Buserelin (SEQ ID NO: 10), chicken II GnRH (SEQ ID NO: 6), D-Arg (6)-chicken II GnRH-des-Gly (10)-ethylamide (SEQ ID NO: 2), or D-Arg (6)-chicken II GnRH-aza-Gly (10)-amide (SEQ ID NO: 2) (100 μL) and either radiolabeled Buserelin (SEQ ID NO: 10) or radiolabeled D-Arg (6)-chicken II GnRH-aza-Gly (10)-amide (SEQ ID NO: 2) (100 μL/tube and iodinated). Following incubation at room temperature for 4 hours, the bound and free hormones were separated using polyethylene glycol precipitation, followed by centrifugation. The binding affinity for each GnRH isoform or analog was calculated using the double reciprocal plot of bound versus free ligand. Each study was done using three different human term placental tissues.

[5] = test system: human term placental explants; assay: Static explant culture, release of hCG, progesterone, PGE2; assay type: cell-based; settings: 0.25-1.00 μM, four placentas
Excerpt: The biological activity of the newly synthesized non-mammalian GnRH analogs was studied using a static implant culture system. This system allows for inexpensive extended activity studies. Mammalian GnRH action on the human placenta release of hCG, progesterone and prostaglandins were defined using this system. Replicate cultures were studied, thus allowing for comparison of different doses of each non-mammalian GnRH analog to mammalian GnRH (SEQ ID NO: 5), as well as direct competition assays. […] These studies were repeated using different human placentas. Siler-Khodr T M, Khodr G S, Valenzuela G, Rhode J 1986 Gonadotropin-releasing hormone effects on placental hormones during gestation: II. Progesterone, estrone, estradiol and estriol. Biol Reprod 34:255-264; Siler-Khodr T M, Khodr G S, Valenzuela G, Rhode J 1986 Gonadotropin-releasing hormone effects on placental hormones during gestation: 1 Alpha-human chorionic gonadotropin, human chorionic gonadotropin and human chorionic somatomammotropin. Biol Reprod 34:245-254; Siler-Khodr T M, Khodr G S, Valenzuela G, Harper J, Rhode J 1986 GnRH effects on placental hormones during gestation. 111 Prostaglandin E, prostaglandin F, and 13, 14-dihydro-15-keto-prostaglandin F. Biol Reprod 35:312-319.
In these and additional studies, an explant culture system was used to determine the effect of mammalian GnRH (SEQ ID NO: 5), chicken II GnRH (SEQ ID NO: 6), or the D-Arg(6)-chicken II GnRH-aza-Gly(10)-amide analog (SEQ ID NO: 2) on the release of the hCG, progesterone, and prostaglandin E2. Human term placentas were dissected free of membranes, minced into fragments of 5 mm, rinsed in medium, and a total weight of ˜100 mg (20 explants) was placed on a sterile filter paper resting on an organ culture grid such that they touched the surface of the culture medium, but were not immersed in it. The medium contained penicillin, streptomycin, and fungizone at 100 U/mL, 100 μg/mL, and 2.5 μg/mL respectively with and without varying doses of GnRH isoforms or analogs was added to each Petri dish. Triplicate chambers for each media were made and incubated at 37 C in a humidified chamber with an atmosphere of 5% CO2 and 95% air. Spent media were collected and replaced after 2 hours, 24 hours, and 48 hour of culture and stored frozen at −20° C. until assayed for hormones. HCG, progesterone, and PGE2 were measured using specific double antibody procedures as described previously. The chicken II GnRH analog (SEQ ID NO: 2) was studied using four different human term placentas, and the native chicken II GnRH isoform was also studied using one human term placenta. Gibbons J M, Mitnick M, Chieffo V 1975 In vitro biosynthesis, of TSH- and LH-releasing factors by the human placenta. Am J Obstet Gynecol 121:127-131.

[6] = test system: chorionic peptidase-1 (C-ase-1)
[7] = test system: baboon ovarian enzymatic activity
Procedure: In these studies the enzyme was in the ovarian extract.
In this assay, following incubation of the enzyme and GnRH, with and without the chosen analog, the reaction was stopped by heating and the remaining GnRH substrate was quantified by radioimmunoassay. The product formed is calculated by subtraction, and its inverse plotted against the inverse of the original substrate concentrations to determine the nature of the competition. The Ki was determined by plotting the inverse of the product formed versus the inhibitor used.

[8] = test system: chorionic peptidase-1 (C-ase-1); settings: neutral pH; read-out: Km for degradation by C-ase-1; cited from earlier work

SMILES	receptor activity/potency compared with GnRH ([1]; 125I-Buserelin, Example VI)	receptor binding potency compared with mammalian GnRH ([1]; Buserelin label, Example II)	hCG response ([2]; 10^−7 M)	average stimulation of hCG release, relative to control tissues ([2]; throughout five hours of perifusion) [%]	effect on progesterone release, in words (baboon granulosa cells)	Kd (placental GnRH receptor) [nM]	degradation by / competition for C-ase-1, in words [3]	degradation/competition relative to mammalian GnRH ([3]; Example III)	Ki ([3]; competition for degradation of mammalian GnRH, Example III) [nM]	Kd ([1]; 125I-Buserelin, Example VI, read-out: Kd) [nM]	decrease of affinity when the analog is used as label [4] [times]	effect on progesterone release [5]	effect on release of hCG [5]	degradation by / competition for C-ase-1, in words [6]	Ks for degradation by ovarian tissues [7] [nM]	Km [8] [µM]	Ks for degradation by C-ase-1 ([3]; Lineweaver-Burke plot) [nM]
CCNC(=O)[C@@H]1CCCN1C(=O)[C@H](CCCNC(=N)N)NC(=O)[C@H](CC(C)C)NC(=O)[C@@H](COC(C)(C)C)NC(=O)[C@H](Cc1ccc(O)cc1)NC(=O)[C@H](CO)NC(=O)[C@H](Cc1c[nH]c2ccccc12)NC(=O)[C@H](Cc1cnc[nH]1)NC(=O)[C@@H]1CCC(=O)N1 [Buserelin]	twice as active	three-fold more potent	small stimulation of hCG at early time points	150	without significant effect	579 ± 84	potent competitive inhibitors	one fourth the rate	110								
CC(C)C[C@H](NC(=O)CNC(=O)[C@H](Cc1ccc(O)cc1)NC(=O)[C@H](CO)NC(=O)[C@H](Cc1c[nH]c2ccccc12)NC(=O)[C@H](Cc1cnc[nH]1)NC(=O)[C@@H]1CCC(=O)N1)C(=O)N[C@@H](CCCNC(=N)N)C(=O)N1CCC[C@H]1C(=O)NCC(N)=O [mammalian GnRH]										1000	1.5	not affected by mammalian GnRH (SEQ ID NO: 5) in two of four placentas, but in one placenta it was significantly increased and in the other was decreased	no significant effect	actively degraded	~30	0.01	~30
